Data on five compounds can be found in ChEMBL document CHEMBL3044823, “Design, synthesis, and evaluation of anti-inflammatory and ulcerogenicity of novel pyridazinone derivatives” (Med Chem Res, 2012).

SMILES strings stand for the structures.

Data set [1] concerns Rattus norvegicus. Put plainly: Ulcerogenicity in Rattus norvegicus Sprague-Dawley (rat) stomach assessed as ulcer score at 50 mg/kg administered via intragastrically after 6 hr by hematoxylin and eosin staining. Particulars: in vivo, po. The class given is toxicity, organism-based. The arrangement: dose 50 mg/kg, route intragastric.
The test system of data set [2] is Rattus norvegicus. Put plainly: Anti-inflammatory activity in Rattus norvegicus Sprague-Dawley (rat) assessed as inhibition of carrageenan-induced paw edema at 10 mg/kg administered 1 hr prior to carrageenan challenge measured at 4 hr relative to control. It is filed as functional.
Data set [3] relates to Rattus norvegicus. The experiment in a line: Anti-inflammatory activity in Rattus norvegicus Sprague-Dawley (rat) assessed as inhibition of carrageenan-induced paw edema at 10 mg/kg administered 1 hr prior to carrageenan challenge measured at 2 hr relative to control. The class given is functional. (The carrageenan paw model is a standard test of acute inflammation.)
For data set [4], the system named is Rattus norvegicus. The experiment in a line: Anti-inflammatory activity in Rattus norvegicus Sprague-Dawley (rat) assessed as inhibition of carrageenan-induced paw edema at 10 mg/kg administered 1 hr prior to carrageenan challenge measured at 1 hr relative to control. The class given is functional.
Data set [5] concerns Rattus norvegicus. Put plainly: Anti-inflammatory activity in Rattus norvegicus Sprague-Dawley (rat) assessed as inhibition of carrageenan-induced paw edema at 10 mg/kg administered 1 hr prior to carrageenan challenge measured at 4 hr relative to diclofenac. The class given is functional.
For data set [6], the system named is Rattus norvegicus. The experiment in a line: Ulcerogenicity in Rattus norvegicus Sprague-Dawley (rat) stomach assessed as decrease in gastric mucosa layer thickness at 50 mg/kg administered via intragastrically after 6 hr by hematoxylin and eosin staining relative to untreated control. The class given is toxicity, organism-based. The arrangement: dose 50 mg/kg, route intragastric; scale not given: the % may be the effect or the level left. The conditions noted are these: in vivo, po.

For data set [7], the system named is Rattus norvegicus. The experiment in a line: Ulcerogenicity in Rattus norvegicus Sprague-Dawley (rat) stomach assessed as appearance of cone shape gastric mucosa layer at 50 mg/kg administered via intragastrically after 6 hr by hematoxylin and eosin staining relative to untreated control. The class given is toxicity, organism-based. Set-up: dose 50 mg/kg, route intragastric. The conditions noted are these: in vivo, po.

Take `Cc1cccc(C)c1Nc1ccc(=O)[nH]n1`: the UI in data set [1] is on record as 1.8.
Still for that read-out and setting: the result for `O=C(O)c1ccccc1Oc1ccc(=O)[nH]n1` reads 2.
The same measure, in the same setting: the result for `O=c1ccc(Nc2ccccc2Br)n[nH]1` reads 4.2.
By inhibition in vivo is commonly meant the share of the control response that was lost under treatment. For `O=C(O)Cc1ccccc1Nc1c(Cl)cccc1Cl` [DICLOFENAC], the inhibition in vivo at 10 mg/kg amounted to 78.3% in data set [2], 73.5% in data set [3], 65.3% in data set [4] and 100% in data set [5].
For `COc1ccc2c(c1)c(CC(=O)O)c(C)n2C(=O)c1ccc(Cl)cc1` [INDOMETHACIN], the Activity in data set [6] is 20%; in data set [7], “Toxic”. Moreover, the UI in data set [1] worked out at 7.2.
